Key:
Test in all cases: Bliss excess, mean over the matrix (fraction); higher = more synergy
A204 (Rhabdomyosarcoma) = system: A204 (Rhabdomyosarcoma)
Summary of the method: (§1)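 After 24 hours at 37°C and 5% CO2 in 1536-well plates, cells in DMEM/F12 or RPMI plus 10% FBS received two-drug dose matrices for 72 hours. Viability came from CellTiter-Glo 2.0 luminescence and was scaled as inhibition, anchored at 0 by vehicle wells and at 1 by blank wells. Combination Emax is taken as the second-highest inhibition in the matrix, and Bliss excess as the observed combination effect less EA + EB − EA·EB, with EA and EB the single-agent effects.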

[1] = system: A2780 (Ovarian Carcinoma)
Summary of the method: as §1

[2] = system: CA46 (Burkitt's Lymphoma)
Summary of the method: as §1

[3] = system: G-402 (Other Solid Carcinomas)
Summary of the method: as §1

[4] = system: Jurkat (T-Lymphoblastic Leukemia)
Summary of the method: as §1

KP-N-YN (Neuroblastoma) = system: KP-N-YN (Neuroblastoma)
Summary of the method: as §1

[5] = system: KYSE-140 (Esophageal Squamous Cell Carcinoma)
Summary of the method: as §1

[6] = system: LS-411N (Colorectal Carcinoma)
Summary of the method: as §1

[7] = system: LU-165 (Small Cell Lung Carcinoma)
Summary of the method: as §1

[8] = system: MDA-MB-436 (Breast Carcinoma)
Summary of the method: as §1

[9] = system: MHH-ES-1 (Ewing's Sarcoma)
Summary of the method: as §1

[10] = system: NCI-H1703 (Squamous Cell Lung Carcinoma)
Summary of the method: as §1

[11] = system: NCI-H2228 (Lung Adenocarcinoma)
Summary of the method: as §1

[12] = system: NCI-H441 (Lung Adenocarcinoma)
Summary of the method: as §1

[13] = system: OACp4C (Esophageal Adenocarcinoma)
Summary of the method: as §1

RH-41 (Rhabdomyosarcoma) = system: RH-41 (Rhabdomyosarcoma)
Summary of the method: as §1

[14] = system: UACC-812 (Breast Carcinoma)
Summary of the method: as §1

WM1552C (Melanoma) = system: WM1552C (Melanoma)
Summary of the method: as §1

[15] = system: huH-1 (Hepatocellular Carcinoma)
Summary of the method: as §1

[16] = system: ESO26 (Esophageal Adenocarcinoma)
Summary of the method: as §1

SMILES	Bliss excess (A204 (Rhabdomyosarcoma))	Bliss excess [1]	Bliss excess [2]	Bliss excess [3]	Bliss excess [4]	Bliss excess (KP-N-YN (Neuroblastoma))	Bliss excess [5]	Bliss excess [6]	Bliss excess [7]	Bliss excess [8]	Bliss excess [9]	Bliss excess [10]	Bliss excess [11]	Bliss excess [12]	Bliss excess [13]	Bliss excess (RH-41 (Rhabdomyosarcoma))	Bliss excess [14]	Bliss excess (WM1552C (Melanoma))	Bliss excess [15]	Bliss excess [16]
Cc1c2c(nn1C)CSCc1cc(n(C)n1)CSc1cc(c3ccccc3c1)OCCCc1c(C(=O)O)n(C)c3c-2c(Cl)ccc13 [AZD5991] + CCN(CCO)CCCOc1ccc2c(Nc3cc(CC(=O)Nc4cccc(F)c4)[nH]n3)ncnc2c1 [AZD2811] (first compound max 1 µM, 7x7, partner max 1 µM)	0.0358	0.0561	0.0251	0.0271	0.0119	0.0556	0.0169	0.0206	-0.025	-0.0406	0.0173	0.0139	0.0161	-0.0142	0.0088	0.0183	-0.0149	-0.0095	0.024	
Cc1c2c(nn1C)CSCc1cc(n(C)n1)CSc1cc(c3ccccc3c1)OCCCc1c(C(=O)O)n(C)c3c-2c(Cl)ccc13 [AZD5991] + C[C@@H](Nc1cc(F)cc(F)c1)c1cc(C(=O)N(C)C)cc2c(=O)cc(N3CCOCC3)oc12 [AZD8186] (first compound max 1 µM, 7x7, partner max 3 µM)	-0.0051	-0.0049	-0.0611		-0.0077	-0.0498	-0.0439	0.0064	-0.0238	-0.0139	-0.0142	-0.0012	-0.0361	-0.0189	0.0153	-0.0114	0.0043	0.0005	-0.0024	-0.0171
NC1(C(=O)N[C@@H](CCO)c2ccc(Cl)cc2)CCN(c2ncnc3[nH]ccc23)CC1 [Capivasertib] + CC(=O)c1c(C)c2cnc(Nc3ccc(N4CCNCC4)cn3)nc2n(C2CCCC2)c1=O [Palbociclib] (first compound max 10 µM, 7x7, partner max 10 µM)	-0.0496	-0.0266	0.0033	-0.0357	0.0314	-0.043	-0.0427	-0.0119	-0.0886	-0.0267	0.0257	0.0189	-0.0216	-0.0304	-0.0239	-0.047		0.0025	-0.0462	-0.0512
NC1(C(=O)N[C@@H](CCO)c2ccc(Cl)cc2)CCN(c2ncnc3[nH]ccc23)CC1 [Capivasertib] + CC(C)n1c(=O)n(C)c2cnc3cc(F)c(-c4ccc(OCCCN5CCCCC5)nc4)cc3c21 [AZD1390] (first compound max 10 µM, 7x7, partner max 0.3 µM)	-0.0575	-0.0885	-0.049	-0.0731	-0.047	-0.112	-0.033	-0.0267	-0.0456	-0.0625	-0.0515	-0.0132	-0.0728	-0.0711	-0.0479	-0.0364		-0.0474	-0.0802	-0.053
NC1(C(=O)N[C@@H](CCO)c2ccc(Cl)cc2)CCN(c2ncnc3[nH]ccc23)CC1 [Capivasertib] + CCN(CCO)CCCOc1ccc2c(Nc3cc(CC(=O)Nc4cccc(F)c4)[nH]n3)ncnc2c1 [AZD2811] (first compound max 10 µM, 7x7, partner max 1 µM)	-0.0058	0.05	-0.0519	-0.0502	-0.0289	-0.0515	-0.0096	-0.0556	-0.0323	-0.0424	-0.0132	-0.0237	-0.041	-0.0425	-0.0332	0.0097		-0.0378	-0.0695	-0.0308
NC1(C(=O)N[C@@H](CCO)c2ccc(Cl)cc2)CCN(c2ncnc3[nH]ccc23)CC1 [Capivasertib] + COc1nnc2ccc(N3CCC(c4ccc(OCCN5CCN(C)C(=O)[C@H]5C)cc4)CC3)nn12 [AZD5153] (first compound max 10 µM, 7x7, partner max 1 µM)	0.006	-0.0148	-0.0183	-0.02	0.0593	-0.0718	0.0298	0.11	-0.0351	-0.0555	0.0467	0.0357	0.036	-0.006	0.0153	0.0198		-0.0366	0.0064	0.0358
NC1(C(=O)N[C@@H](CCO)c2ccc(Cl)cc2)CCN(c2ncnc3[nH]ccc23)CC1 [Capivasertib] + C[C@@H]1COCCN1C2=NC(=NC(=C2)C3(CC3)[S@](=N)(=O)C)C4=C5C=CNC5=NC=C4 [AZD6738] (first compound max 10 µM, 7x7, partner max 10 µM)	-0.0201	-0.0336	0.0324	-0.017	-0.0403	-0.0395	-0.0846	-0.0605	-0.01	-0.0473	-0.0259	-0.0292	-0.0617	-0.0011	-0.0402	-0.0389		-0.062	-0.0533	-0.0364
NC1(C(=O)N[C@@H](CCO)c2ccc(Cl)cc2)CCN(c2ncnc3[nH]ccc23)CC1 [Capivasertib] + Cn1cnc2c(F)c(Nc3ccc(Br)cc3Cl)c(C(=O)NOCCO)cc21 [Selumetinib] (first compound max 10 µM, 7x7, partner max 10 µM)	0.0013	0.0151	0.0039	0.0126	0.009	0.053	-0.0003	0.0005	-0.0404	0.0258	0.0114	0.0358	0.017	-0.0041	-0.0318	0.0251		0.036	-0.0199	0.0818
CS(=O)(=O)CCNCc1ccc(-c2ccc3ncnc(Nc4ccc(OCc5cccc(F)c5)c(Cl)c4)c3c2)o1 [Lapatinib] + C[C@@H](Oc1cc(-c2cnn(C3CCNCC3)c2)cnc1N)c1c(Cl)ccc(F)c1Cl [Crizotinib] (first compound max 10 µM, 7x7, partner max 10 µM)	-0.0279	-0.0277	0.0216	-0.0517	0.0331	-0.0084	-0.0083	-0.033	-0.0858	-0.0237	-0.0333	-0.0733	0.0163	-0.0412	-0.0355	-0.0054		-0.0534	-0.0577	-0.0293
CS(=O)(=O)CCNCc1ccc(-c2ccc3ncnc(Nc4ccc(OCc5cccc(F)c5)c(Cl)c4)c3c2)o1 [Lapatinib] + NC1(c2ccc(-c3nc4ccn5c(=O)[nH]nc5c4cc3-c3ccccc3)cc2)CCC1 [MK-2206] (first compound max 10 µM, 7x7, partner max 10 µM)		-0.027				0.0876		-0.0339	-0.0522	0.0323	0.0191	-0.0136		-0.0033				-0.0297		
O=C(c1cc(Cc2n[nH]c(=O)c3ccccc23)ccc1F)N1CCN(C(=O)C2CC2)CC1 [Olaparib] + Cc1c2c(nn1C)CSCc1cc(n(C)n1)CSc1cc(c3ccccc3c1)OCCCc1c(C(=O)O)n(C)c3c-2c(Cl)ccc13 [AZD5991] (first compound max 10 µM, 7x7, partner max 1 µM)		0.0369				-0.068			-0.0374	-0.0211	0.0108	-0.0244		-0.054			-0.0301	0.0329		
CC(=O)c1c(C)c2cnc(Nc3ccc(N4CCNCC4)cn3)nc2n(C2CCCC2)c1=O [Palbociclib] + CC1(C)CCC(CN2CCN(c3ccc(C(=O)NS(=O)(=O)c4ccc(NCC5CCOCC5)c([N+](=O)[O-])c4)c(Oc4cnc5[nH]ccc5c4)c3)CC2)=C(c2ccc(Cl)cc2)C1 [Venetoclax] (first compound max 10 µM, 7x7, partner max 1 µM)	0.0194	0.0005	-0.0004	0.0369	0.0157	-0.0844	-0.0285	-0.0247	-0.0502	-0.0345	0.0193	0.0004	0.005	-0.0237	-0.0167	-0.0019		-0.0334	-0.0529	-0.0364
CC(=O)c1c(C)c2cnc(Nc3ccc(N4CCNCC4)cn3)nc2n(C2CCCC2)c1=O [Palbociclib] + Cc1c2c(nn1C)CSCc1cc(n(C)n1)CSc1cc(c3ccccc3c1)OCCCc1c(C(=O)O)n(C)c3c-2c(Cl)ccc13 [AZD5991] (first compound max 10 µM, 7x7, partner max 1 µM)	-0.026	-0.0344	-0.0242	0.0106	-0.083	0.0562	-0.0814	-0.0397	-0.0347	-0.0243	-0.008	-0.0636	-0.0537	-0.0362	-0.064	-0.0028		-0.0565	-0.0422	-0.0467
CCc1c2c(nc3ccc(O)cc13)-c1cc3c(c(=O)n1C2)COC(=O)[C@]3(O)CC [SN-38] + O=C(c1cc(Cc2n[nH]c(=O)c3ccccc23)ccc1F)N1CCN(C(=O)C2CC2)CC1 [Olaparib] (first compound max 0.3 µM, 7x7, partner max 10 µM)		0.0545		0.0614		-0.0038		-0.012	0.0203	0.0627	0.0533	0.0271		0.0449	0.0413		0.0333	0.0586	0.0467	0.0237
Cc1nc(-c2cn3c(n2)-c2ccc(-c4cnn(C(C)(C)C(N)=O)c4)cc2OCC3)n(C(C)C)n1 [Taselisib] + O=C(Nc1ccc2[nH]nc(-c3ccncc3)c2c1)[C@@H]1CCN(CC(=O)N2CCN(c3ccc(-c4ncccn4)cc3)CC2)C1 [SCH772984] (first compound max 10 µM, 7x7, partner max 5 µM)		-0.0087				0.0278			-0.0073	-0.0028	0.102	-0.0292		0.0123			0.0095	0.0205		
CC1(C)CCC(CN2CCN(c3ccc(C(=O)NS(=O)(=O)c4ccc(NCC5CCOCC5)c([N+](=O)[O-])c4)c(Oc4cnc5[nH]ccc5c4)c3)CC2)=C(c2ccc(Cl)cc2)C1 [Venetoclax] + CS(=O)(=O)CCNCc1ccc(-c2ccc3ncnc(Nc4ccc(OCc5cccc(F)c5)c(Cl)c4)c3c2)o1 [Lapatinib] (first compound max 1 µM, 7x7, partner max 10 µM)		-0.0363				-0.0157			-0.0289	-0.0222	0.0086	0.0019		-0.0292			0.0062	-0.0328		
